These results are taken from ChEMBL document CHEMBL4425153, “Matched and mixed cap derivatives in the tetracyclic indole class of HCV NS5A inhibitors” (Bioorg Med Chem Lett, 2016).

Experiment [1] has as its target T1, Nonstructural protein 5A (Hepatitis C virus) (UniProt Q5L478).
T1 sequence (whole entry): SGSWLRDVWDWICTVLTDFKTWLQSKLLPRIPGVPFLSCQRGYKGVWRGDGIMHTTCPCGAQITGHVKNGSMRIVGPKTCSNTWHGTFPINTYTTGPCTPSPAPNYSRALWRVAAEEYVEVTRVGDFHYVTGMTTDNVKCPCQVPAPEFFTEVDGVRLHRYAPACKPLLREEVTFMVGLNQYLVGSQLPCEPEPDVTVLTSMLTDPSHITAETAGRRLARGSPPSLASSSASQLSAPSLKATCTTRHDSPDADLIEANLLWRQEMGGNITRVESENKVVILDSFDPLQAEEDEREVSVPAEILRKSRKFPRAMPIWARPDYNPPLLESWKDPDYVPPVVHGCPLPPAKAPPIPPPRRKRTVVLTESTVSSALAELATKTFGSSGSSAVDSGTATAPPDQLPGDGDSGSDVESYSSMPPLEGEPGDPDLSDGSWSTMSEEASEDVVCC
Description: Inhibition of wild type HCV genotype 1a NS5A assessed as reduction in viral RNA level by cell based real time PCR method. The note with it: Hepatitis C virus subtype 1a.

Experiment [2] deals with T1, Nonstructural protein 5A (Hepatitis C virus). In words: Inhibition of wild type HCV genotype 2b NS5A assessed as reduction in viral RNA level by cell based real time PCR method. Conditions: Hepatitis C virus subtype 2b. A general note: Quantitative PCR measures a nucleic acid by following its amplification.
Experiment [3] deals with T2, Nonstructural protein 5A (Hepatitis C virus), Q5L478 [Y93H].
T2 sequence (whole entry): T1 sequence (whole entry) with Y93H
Description: Inhibition of HCV genotype 1a NS5A Y93H mutant assessed as reduction in viral RNA level by cell based real time PCR method. The note with it: Hepatitis C virus subtype 1a.

Experiment [4] concerns Nonstructural protein 5A (Hepatitis C virus), Q5L478 [UNDEFINED MUTATION]. Description: Inhibition of HCV genotype 1a NS5A L31V mutant assessed as reduction in viral RNA level by cell based real time PCR method. The note with it: Hepatitis C virus subtype 1a.

What is called EC90 is the concentration needed for an effect of 90%.

Substitutions are numbered along the chain they refer to. Where only a bound is given, the exact number is not on record here.

`COC(=O)N[C@@H](CC1CCOCC1)C(=O)N1CCC[C@H]1c1ncc(-c2ccc3c(c2)O[C@@H](c2ccccc2)n2c-3cc3cc(-c4cnc([C@@H]5CCCN5C(=O)[C@H](CC5CCOCC5)NC(=O)OC)[nH]4)ccc32)[nH]1`: the EC90 in experiment [1] is 0.1 nM; in experiment [2], 18 nM; in experiment [3] it was 40 nM; in experiment [4] it was 0.77 nM.
For `COC(=O)N[C@H](C(=O)N1CCC[C@H]1c1ncc(-c2ccc3c(c2)cc2n3[C@H](c3ccccc3)Oc3cc(-c4cnc([C@@H]5CCCN5C(=O)[C@@H](NC(=O)OC)[C@@H](C)OC)[nH]4)ccc3-2)[nH]1)C(C)C`, the EC90 in experiment [1] is 0.062 nM; in experiment [2] it was 5 nM; in experiment [3], 50 nM; in experiment [4], 1.1 nM.
In the same order, the values of `COC(=O)N[C@H](C(=O)N1CCC[C@H]1c1ncc(-c2ccc3c(c2)O[C@@H](c2ccccc2)n2c-3cc3cc(-c4cnc([C@@H]5CCCN5C(=O)[C@@H](NC(=O)OC)C5CCC(F)(F)CC5)[nH]4)ccc32)[nH]1)C1CCC(F)(F)CC1` are 0.03 nM, 77 nM, 39 nM and 0.65 nM.
Taken in the same sequence, the figures for `COC(=O)NC1(C(=O)N2CCC[C@H]2c2ncc(-c3ccc4c(c3)O[C@@H](c3ccccc3)n3c-4cc4cc(-c5cnc([C@@H]6CCCN6C(=O)C6(NC(=O)OC)CCOCC6)[nH]5)ccc43)[nH]2)CCOCC1` were 1.4 nM, more than 100 nM, more than 100 nM and more than 100 nM.
`COC(=O)N[C@H](C(=O)N1CCC[C@H]1c1ncc(-c2ccc3c(c2)O[C@@H](c2ccccc2)n2c-3cc3cc(-c4cnc([C@@H]5CCCN5C(=O)[C@@H](NC(=O)OC)C5CCOCC5)[nH]4)ccc32)[nH]1)C(C)C`: the EC90 in experiment [1] worked out at 0.06 nM; in experiment [2], 9 nM; in experiment [3] it was 11 nM; in experiment [4], 0.6 nM.
On to `COC(=O)N[C@H](C(=O)N1CCC[C@H]1c1ncc(-c2ccc3c(c2)O[C@@H](c2ccccc2)n2c-3cc3cc(-c4cnc([C@@H]5CCCN5C(=O)[C@@H](NC(=O)OC)C5CCCC5)[nH]4)ccc32)[nH]1)C1CCCC1`, for which the EC90 in experiment [1] is 0.014 nM; in experiment [2], 52 nM; in experiment [3], more than 100 nM; in experiment [4], 4.1 nM.
Turning to `CN(C)[C@@H](C(=O)N1CCC[C@H]1c1ncc(-c2ccc3c(c2)O[C@@H](c2ccccc2)n2c-3cc3cc(-c4cnc([C@@H]5CCCN5C(=O)[C@@H](c5ccc(F)cc5)N(C)C)[nH]4)ccc32)[nH]1)c1ccc(F)cc1`, the EC90 is 0.98 nM in experiment [1], more than 100 nM in experiment [2], more than 100 nM in experiment [3] and more than 100 nM in experiment [4].
In the case of `O=C([C@@H](c1ccccc1)N1CCCC1)N1CCC[C@H]1c1ncc(-c2ccc3c(c2)O[C@@H](c2ccccc2)n2c-3cc3cc(-c4cnc([C@@H]5CCCN5C(=O)[C@@H](c5ccccc5)N5CCCC5)[nH]4)ccc32)[nH]1`, the EC90 in experiment [1] is 3.9 nM; in experiment [2], 13 nM; in experiment [3], more than 100 nM; in experiment [4], 3.9 nM.
On to `COC(=O)N[C@H](C(=O)N1CCC[C@H]1c1ncc(-c2ccc3c(c2)O[C@@H](c2ccccc2)n2c-3cc3cc(-c4cnc([C@@H]5CCCN5C(=O)[C@@H](NC(=O)OC)C5CCCCC5)[nH]4)ccc32)[nH]1)C1CCCCC1`, for which the EC90 in experiment [1] is 0.1 nM; in experiment [2] it was more than 100 nM; in experiment [3] it was more than 100 nM; in experiment [4], 11 nM.
On to `CCN(CC)[C@@H](C(=O)N1CCC[C@H]1c1ncc(-c2ccc3c(c2)cc2n3[C@H](c3ccccc3)Oc3cc(-c4cnc([C@@H]5CCCN5C(=O)[C@@H](NC(=O)OC)C(C)C)[nH]4)ccc3-2)[nH]1)c1ccccc1`, for which the EC90 worked out at 0.045 nM in experiment [1], 4 nM in experiment [2] and 44 nM in experiment [3].
On to `COC(=O)N[C@H](C(=O)N1CCC[C@H]1c1ncc(-c2ccc3c(c2)O[C@@H](c2ccccc2)n2c-3cc3cc(-c4cnc([C@@H]5CCCN5C(=O)[C@@H](NC(=O)OC)C5CCC(F)(F)CC5)[nH]4)ccc32)[nH]1)C(C)C`, for which the EC90 was found to be 0.018 nM in experiment [1], 23 nM in experiment [2], 34 nM in experiment [3] and 0.89 nM in experiment [4].
Take `COCC[C@H](NC(=O)OC)C(=O)N1CCC[C@H]1c1ncc(-c2ccc3c(c2)O[C@@H](c2ccccc2)n2c-3cc3cc(-c4cnc([C@@H]5CCCN5C(=O)[C@H](CCOC)NC(=O)OC)[nH]4)ccc32)[nH]1`: the EC90 was found to be 0.061 nM in experiment [1], 91 nM in experiment [2], 46 nM in experiment [3] and 2.1 nM in experiment [4].
With `COC(=O)N[C@H](C(=O)N1CCC[C@H]1c1ncc(-c2ccc3c(c2)O[C@@H](c2ccccc2)n2c-3cc3cc(-c4cnc([C@@H]5CCCN5C(=O)[C@@H](NC(=O)OC)[C@@H](C)OC)[nH]4)ccc32)[nH]1)[C@@H](C)OC`, the EC90 is 0.019 nM in experiment [1], 17 nM in experiment [2] and more than 100 nM in experiment [3].
As for `COC(=O)N[C@H](C(=O)N1CCC[C@H]1c1ncc(-c2ccc3c(c2)O[C@@H](c2ccccc2)n2c-3cc3cc(-c4cnc([C@@H]5CCCN5C(=O)C5(NC(=O)OC)CCCCC5)[nH]4)ccc32)[nH]1)C(C)C`, the EC90 in experiment [1] was 0.035 nM; in experiment [2] it was more than 100 nM; in experiment [3], more than 100 nM; in experiment [4], 14.7 nM.
Take `COC(=O)N[C@H](C(=O)N1CCC[C@H]1c1ncc(-c2ccc3c(c2)O[C@@H](c2ccccc2)n2c-3cc3cc(-c4cnc([C@@H]5CCCN5C(=O)[C@@H](NC(=O)OC)C5CC5)[nH]4)ccc32)[nH]1)C1CC1`: the EC90 in experiment [1] was 0.028 nM; in experiment [2], more than 100 nM; in experiment [3], more than 100 nM; in experiment [4], more than 100 nM.
In the case of `COC(=O)N[C@H](C(=O)N1CCC[C@H]1c1ncc(-c2ccc3c(c2)O[C@@H](c2ccccc2)n2c-3cc3cc(-c4cnc([C@@H]5CCCN5C(=O)[C@@H](NC(=O)OC)[C@@H](C)O)[nH]4)ccc32)[nH]1)[C@@H](C)O`, the EC90 was more than 1 nM in experiment [1], more than 100 nM in experiment [2], more than 100 nM in experiment [3] and more than 100 nM in experiment [4].
Regarding `CN(C)[C@@H](C(=O)N1CCC[C@H]1c1ncc(-c2ccc3c(c2)O[C@@H](c2ccccc2)n2c-3cc3cc(-c4cnc([C@@H]5CCCN5C(=O)[C@@H](c5ccccc5)N(C)C)[nH]4)ccc32)[nH]1)c1ccccc1`, the 90% effect concentration (EC90) in experiment [1] was 0.3 nM; in experiment [2], 0.87 nM; in experiment [3], more than 100 nM; in experiment [4], 2.1 nM.
With `COC(=O)N[C@@H](C(=O)N1CCC[C@H]1c1ncc(-c2ccc3c(c2)O[C@@H](c2ccccc2)n2c-3cc3cc(-c4cnc([C@@H]5CCCN5C(=O)[C@H](NC(=O)OC)C5CCOCC5)[nH]4)ccc32)[nH]1)C1CCOCC1`, the EC90 in experiment [1] is 8.6 nM; in experiment [2], more than 100 nM; in experiment [3], more than 100 nM; in experiment [4], more than 100 nM.
Turning to `COC(=O)N[C@@H](C)C(=O)N1CCC[C@H]1c1ncc(-c2ccc3c(c2)O[C@@H](c2ccccc2)n2c-3cc3cc(-c4cnc([C@@H]5CCCN5C(=O)[C@H](C)NC(=O)OC)[nH]4)ccc32)[nH]1`, the EC90 in experiment [1] is 0.042 nM; in experiment [2] it was more than 100 nM; in experiment [3], more than 100 nM; in experiment [4] it was 6.4 nM.
Turning to `CC[C@H](C)[C@H](NC(=O)OC)C(=O)N1CCC[C@H]1c1ncc(-c2ccc3c(c2)O[C@@H](c2ccccc2)n2c-3cc3cc(-c4cnc([C@@H]5CCCN5C(=O)[C@@H](NC(=O)OC)C(C)C)[nH]4)ccc32)[nH]1`, the EC90 in experiment [1] is 0.06 nM; in experiment [2] it was 50 nM; in experiment [3], 77 nM; in experiment [4] it was 4.3 nM.
Turning to `O=C([C@H]1CCCO1)N1CCC[C@H]1c1ncc(-c2ccc3c(c2)O[C@@H](c2ccccc2)n2c-3cc3cc(-c4cnc([C@@H]5CCCN5C(=O)[C@H]5CCCO5)[nH]4)ccc32)[nH]1`, the EC90 in experiment [1] is 1 nM; in experiment [2], more than 100 nM; in experiment [3] it was more than 100 nM; in experiment [4], more than 100 nM.
Take `CC[C@H](NC(=O)OC)C(=O)N1CCC[C@H]1c1ncc(-c2ccc3c(c2)O[C@@H](c2ccccc2)n2c-3cc3cc(-c4cnc([C@@H]5CCCN5C(=O)[C@H](CC)NC(=O)OC)[nH]4)ccc32)[nH]1`: the EC90 in experiment [1] was 0.016 nM; in experiment [2], 65 nM; in experiment [3], more than 100 nM; in experiment [4] it was 1.6 nM.
With `COC(=O)N[C@H](C(=O)N1CCC[C@H]1c1ncc(-c2ccc3c(c2)O[C@@H](c2ccccc2)n2c-3cc3cc(-c4cnc([C@@H]5CCCN5C(=O)[C@@H](NC(=O)OC)[C@@H](C)OC)[nH]4)ccc32)[nH]1)C(C)C`, the EC90 in experiment [1] amounted to 0.039 nM; in experiment [2] it was 35 nM; in experiment [3], 54 nM.
